Numbered stars: 1 amine (or outer) side, 2 acyl side, 3 side chain; on linkers, the order of the positions; unused ones are H or OH. Bridge positions count the residues as written; N and C are the ends. Square brackets hold non-standard residues; d marks the D form. Peptide text beside a SMILES is read from it. I, II: the chains in the order shown. Actinocin(9to1) = Cc1c2oc3c(C)ccc(C(=O)[*:1])c3nc-2c(C(=O)[*:2])c(N)c1=O; NMeV = CN[C@H](C(=O)O)C(C)C; Sar = CNCC(=O)O
Key:
cancer cell lines = experiment: Combination cell viability assay, general observations on ratios and confirmed synergy; type: cell-based; conditions: in combination with SR16388
Protocol: Cells were treated with compounds alone or in combination for three days and CellTiter-Glo® Luminescent Cell Viability Assay (Promega Corp.) was used as the endpoint to measure cell viability. […] Cells were harvested on Day-1 (FIG. 1A) and re-supspended to the corresponding seeding density and seeded with Wellmate (ThermoFisher) to 384 plates (BD or GBO). […] Master plates were made with Janus (PerkinElmer), then further diluted and added to the cell plates with Matrix Platemate (Thermo) on Day 0. CellTiter-Glo® Luminescent Cell Viability Assay (Promega Corp.) was used to measure ATP as an indicator of viable cells on Day 3 using Envision (PerkinElmer) and back up reader Analyst HT (MDS) and Gen5 (BioTek). Relative Luminescent Units (RLU) were plotted against corresponding drug concentrations and fitted with standard four parameter sigmoidal curve with custom coded R program or Calcusyn (Biosoft, Cambridge, UK).

[1] = tested on: panel of 48 to 60 cell lines; experiment: 5×4 combination screen with SR16388; synergism hit rate by algorithm (Z score); type: cell-based; conditions: in combination with SR16388, all 20 (5×4) dose combinations
Protocol: (§1) SR16388 was synthesized in house.
5) A “combination score” was assigned to each specific combination (Ca1b1x): C=1 if Za1b1x>3*SD and C=0 if Za1b1x≦3*SD score);
6) Hit rate of each combination was calculated by comparing the sum of the combination scores of all 20 (5×4) dose combinations with all cell lines to the total number of data points of that specific combination;
7) Hit rate were ranked from high to low to identify potential synergistic combinations.

[2] = tested on: panel of 48 to 60 cell lines; experiment: 5×4 combination screen with SR16388, CellTiter-Glo viability; synergy by pattern recognition; conditions: in combination with SR16388, 5x4-T1; for no effect (number of cell lines) / synergy (number of cell lines): pattern recognition, of 60 cell lines incl. no data; for % synergy: share of cell lines with data
Protocol: Cells were treated with compounds alone or in combination for three days and CellTiter-Glo® Luminescent Cell Viability Assay (Promega Corp.) was used as the endpoint to measure cell viability.
Cells were cultured in DMEM with 10% fetal bovine serum and used between passage 2 and passage 20. Cells were harvested on Day-1 (FIG. 1A) and re-supspended to the corresponding seeding density and seeded with Wellmate (ThermoFisher) to 384 plates (BD or GBO).
40 mM Compound stocks in 100% DMSO were made. Master plates were made with Janus (PerkinElmer), then further diluted and added to the cell plates with Matrix Platemate (Thermo) on Day 0.
CellTiter-Glo® Luminescent Cell Viability Assay (Promega Corp.) was used to measure ATP as an indicator of viable cells on Day 3 using Envision (PerkinElmer) and back up reader Analyst HT (MDS) and Gen5 (BioTek).
Single point, 5×4 checkque board platemap was used in the initial screening.
Relative Luminescent Units (RLU) were plotted against corresponding drug concentrations and fitted with standard four parameter sigmoidal curve with custom coded R program or Calcusyn (Biosoft, Cambridge, UK).

[3] = tested on: various cancer cell lines; experiment: 11×7 synergism hit rate over all cell lines (by algorism); type: cell-based; conditions: when tested with SR16388
Source text: as §1
Within the same type of cancer cells, some cell lines have more synergistic hits than others. Melanoma and breast cancer cell lines had the highest hit rate.

[4] = Prior in vivo xenograft study and other safety data

Row | Compound | interaction with SR16388 (confirmed) (cancer cell lines) | % hit/combo [1] | no effect (number of cell lines) [2] | synergy (number of cell lines) [2] | % synergy [2] | hit rate [3] | overlapping toxicities with microtubulin inhibitors [4] | tolerability [4]
1 | CCC1=C[C@@H]2CN(C1)Cc1c([nH]c3ccccc13)[C@@](C(=O)OC)(c1cc3c(cc1OC)N(C)[C@H]1[C@@](O)(C(=O)OC)[C@H](OC(C)=O)[C@]4(CC)C=CCN5CC[C@]31[C@@H]54)C2 [Vinorelbine] | synergistic anti-proliferation effect |  |  |  |  |  |  | 
2 | CCN(CC)CCNC(=O)c1c(C)[nH]c(/C=C2\C(=O)Nc3ccc(F)cc32)c1C [Sunitinib] |  | 1.25% | 56 |  |  |  |  | 
3 | CCCCCOC(=O)Nc1nc(=O)n([C@@H]2O[C@H](C)[C@@H](O)[C@H]2O)cc1F [Capecitabine] |  | 1.08% | 58 | 0 | 0% |  |  | 
4 | CC1=C(/C=C/C(C)=C/C=C/C(C)=C/C(=O)O)C(C)(C)CCC1 [Tretinoin] |  | 0.58% | 42 | 0 | 0% |  |  | 
5 | N.N.O=C([O-])C1(C(=O)[O-])CCC1.[Pt+2] [Carboplatin] |  | 0.83% | 41 | 1 | 2% |  |  | 
6 | Nc1ccn([C@@H]2O[C@H](CO)[C@@H](O)[C@@H]2O)c(=O)n1 [Cytarabine] |  | 0.33% | 42 | 0 | 0% |  |  | 
7 | CCc1c2c(nc3ccc(O)cc13)-c1cc3c(c(=O)n1C2)COC(=O)[C@]3(O)CC [SN38] |  | 0.58% | 45 | 13 | 22% |  |  | 
8 | Cc1cn(-c2cc(NC(=O)c3ccc(C)c(Nc4nccc(-c5cccnc5)n4)c3)cc(C(F)(F)F)c2)cn1 [Nilotinib] |  | 0.33% | 42 | 0 | 0% |  |  | 
9 | Cc1nc(Nc2ncc(C(=O)Nc3c(C)cccc3Cl)s2)cc(N2CCN(CCO)CC2)n1 [Dasatinib] |  | 1.08% | 50 | 8 | 14% |  |  | 
10 | CS(=O)(=O)CCNCc1ccc(-c2ccc3ncnc(Nc4ccc(OCc5cccc(F)c5)c(Cl)c4)c3c2)o1 [Lapatinib] |  | 0.67% | 55 | 3 | 5% |  |  | 
11 | Nc1ccn([C@@H]2O[C@H](CO)[C@@H](O)C2(F)F)c(=O)n1 [Gemcitabine] |  | 0.83% | 58 | 0 | 0% |  |  | 
12 | N#Cc1ccc(C(c2ccc(C#N)cc2)n2cncn2)cc1 [Letrozole] |  | 0.42% | 42 | 0 | 0% |  |  | 
13 | Cc1ccc(NC(=O)c2ccc(CN3CCN(C)CC3)cc2)cc1Nc1nccc(-c2cccnc2)n1 [Imatinib] |  | 0.92% | 41 | 1 | 2% |  |  | 
14 | Cc1ccc(-c2cc(C(F)(F)F)nn2-c2ccc(S(N)(=O)=O)cc2)cc1 [Celecoxib] |  | 0.67% | 42 | 0 | 0% |  |  | 
15 | Cn1nnc2c(C(N)=O)ncn2c1=O [Temozolomide] |  | 0.75% | 42 |  |  |  |  | 
16 | C/C=C1\NC(=O)[C@H]2CSSCC/C=C/[C@H](CC(=O)N[C@H](C(C)C)C(=O)N2)OC(=O)[C@H](C(C)C)NC1=O [Romidepsin] |  | 0.75% | 52 | 6 | 10% |  |  | 
17 | CO[C@H]1C[C@@H]2CC[C@@H](C)[C@@](O)(O2)C(=O)C(=O)N2CCCC[C@H]2C(=O)O[C@H]([C@H](C)C[C@@H]2CC[C@@H](O)[C@H](OC)C2)CC(=O)[C@H](C)/C=C(\C)[C@@H](O)[C@@H](OC)C(=O)[C@H](C)C[C@H](C)/C=C/C=C/C=C/1C [Rapamycin] |  | 0.83% | 54 |  |  |  |  | 
18 | Cc1c2oc3c(C)ccc(C(=O)N[C@@H]4C(=O)N[C@H](C(C)C)C(=O)N5CCC[C@H]5C(=O)N(C)CC(=O)N(C)[C@@H](C(C)C)C(=O)O[C@@H]4C)c3nc-2c(C(=O)N[C@@H]2C(=O)N[C@H](C(C)C)C(=O)N3CCC[C@H]3C(=O)N(C)CC(=O)N(C)[C@@H](C(C)C)C(=O)O[C@@H]2C)c(N)c1=O [Actinomycin] (I: T[dV]P[Sar][NMeV] / II: T[dV]P[Sar][NMeV]; ester I:1-I:C, II:1-II:C; linker I:N-II:N via Actinocin(9to1)) |  | 1.67% | 39 |  |  | 1.89% |  | 
19 | Nc1nc(F)nc2c1ncn2[C@@H]1O[C@H](CO)[C@@H](O)[C@@H]1O [FluroaraA] |  | 0.67% | 42 | 0 | 0% |  |  | 
20 | COc1nc(N)nc2c1ncn2[C@@H]1O[C@H](CO)[C@@H](O)[C@@H]1O [Nelarabine] |  | 0.33% | 58 | 0 | 0% |  |  | 
21 | O=C(CCCCCCC(=O)Nc1ccccc1)NO [Vorinostat] |  | 0.83% | 58 | 0 | 0% |  |  | 
22 | C[C@@H]1Cc2cc(O)ccc2[C@H]2CC[C@]3(C)/C(=C/COCCN(C)C)CC[C@H]3[C@H]12 [SR16388] |  |  |  |  |  |  | does not have ovelapping toxicities | well tolerated
23 | Nc1nc(Cl)nc2c1ncn2[C@H]1C[C@H](O)[C@@H](CO)O1 [Cladribine] |  | 0.67% | 42 | 0 | 0% |  |  | 
24 | CO[C@H]1C[C@@H]2CC[C@@H](C)[C@@](O)(O2)C(=O)C(=O)N2CCCC[C@H]2C(=O)O[C@H]([C@H](C)C[C@@H]2CC[C@@H](OCCO)[C@H](OC)C2)CC(=O)[C@H](C)/C=C(\C)[C@@H](O)[C@@H](OC)C(=O)[C@H](C)C[C@H](C)/C=C/C=C/C=C/1C [Everolimus] |  | 0.42% | 58 | 0 | 0% |  |  | 
25 | CC/C(=C(\c1ccccc1)c1ccc(OCCN(C)C)cc1)c1ccccc1 [Tamoxifen] |  | 0.83% | 39 | 3 | 7% |  |  | 
26 | Nc1nc(Cl)nc2c1ncn2[C@@H]1O[C@H](CO)[C@@H](O)[C@@H]1F [Clofarabine] |  | 0.50% | 58 |  |  |  |  | 
27 | O=c1[nH]c(=O)n([C@H]2C[C@H](O)[C@@H](CO)O2)cc1F [Floxuridine] |  | 0.67% | 42 | 0 | 0% |  |  | 
28 | S=P(N1CC1)(N1CC1)N1CC1 [Thiotepa] |  | 0.83% | 42 |  |  |  |  | 
